{"source": "patent US20110071155A1", "about": "“Tricyclic Nitrogen Containing Compounds And Their Use As Antibacterials” (priority 2008, published 2011)", "key": {"[1]": {"test_system": "Mycobacterium tuberculosis H37Rv", "test": "Mycobacterium tuberculosis H37Rv Inhibition Assay (resazurin MIC)", "type": "cell-based", "settings": "ATCC 25618 / H37Rv, H37Rv strain (ATCC25618), Middlebrook 7H9+ADC, six days at 37° C., resazurin fluorescence after 48 hours, read-out: MtB MIC"}, "[2]": {"test": "Antimicrobial Activity Assay: whole-cell broth microdilution (CLSI M7-A7)", "type": "cell-based, Gram-positive and Gram-negative organisms", "settings": "at least one of S. aureus, S. pneumoniae, E. faecalis, H. influenzae, M. catarrhalis, E. coli, read-out: MIC against at least one of the organisms listed", "method": "Antimicrobial Activity Assay: Whole-cell antimicrobial activity was determined by broth microdilution using the Clinical Laboratory Standards Institute (CLSI) recommended procedure, Document M7-A7, “Methods for Dilution Susceptibility Tests for Bacteria that Grow Aerobically”. Compounds were evaluated against Gram-positive organisms, including Staphylococcus aureus, Streptococcus pneumoniae, and Enterococcus faecalis. In addition, compounds were evaluated against Gram-negative organisms including Haemophilus influenzae, Moraxella catarrhalis, and Escherichia coli. The minimum inhibitory concentration (MIC) was determined as the lowest concentration of compound that inhibited visible growth. A mirror reader was used to assist in determining the MIC endpoint."}}}
{"compound": "O=c1ccc2ccc(=O)n3c2n1C[C@H]3CN1CCC(NC/C=C/c2cc(F)ccc2F)CC1", "note": "[Example 1, (1R)-1-[(4-{[(2E)-3-(2,5-difluorophenyl)-2-propen-1-yl]amino}-1-piperidinyl)methyl]-1,2-dihydro-4H,9H-imidazo[1,2,3-ij]-1,8-naphthyridine-4,9-dione]", "values": [{"measurement": "MIC", "setting": "[1]", "value": 0.071, "unit": "µg/mL"}, {"measurement": "MIC", "setting": "[2]", "value": "< 2", "unit": "µg/mL"}]}
{"compound": "O=c1ccc2ncc(=O)n3c2n1CC3CN1CCC(NC/C=C/c2cccc(F)c2)CC1", "note": "(stereo not drawn) [Example 2, 2-[(4-{[(2E)-3-(3-fluorophenyl)-2-propen-1-yl]amino}-1-piperidinyl)methyl]-1,2-dihydro-3H,8H-2a,5,8a-triazaacenaphthylene-3,8-dione]", "values": [{"measurement": "MIC", "setting": "[1]", "value": 0.102, "unit": "µg/mL"}, {"measurement": "MIC", "setting": "[2]", "value": "< 2", "unit": "µg/mL"}]}
{"compound": "O=c1ccc2ncc(=O)n3c2n1CC3CN1CCC(NCCCc2cccc(F)c2)CC1", "note": "(stereo not drawn) [Example 3, 2-[(4-{[3-(3-fluorophenyl)propyl]amino}-1-piperidinyl)methyl]-1,2-dihydro-3H,8H-2a,5,8a-triazaacenaphthylene-3,8-dione]", "values": [{"measurement": "MIC", "setting": "[1]", "value": 0.82, "unit": "µg/mL"}, {"measurement": "MIC", "setting": "[2]", "value": "< 2", "unit": "µg/mL"}]}
{"compound": "O=c1ccc2ccc(=O)n3c2n1C[C@H]3CN1CCC(NC/C=C/c2cncc(F)c2)CC1", "note": "[Example 4, (1R)-1-[(4-{[(2E)-3-(5-fluoro-3-pyridinyl)-2-propen-1-yl]amino}-1-piperidinyl)methyl]-1,2-dihydro-4H,9H-imidazo[1,2,3-ij]-1,8-naphthyridine-4,9-dione]", "values": [{"measurement": "MIC", "setting": "[1]", "value": 0.544, "unit": "µg/mL"}, {"measurement": "MIC", "setting": "[2]", "value": "< 2", "unit": "µg/mL"}]}
{"compound": "O=c1ccc2ncc(=O)n3c2n1CC3CN1CCC(NC/C=C/c2cncc(F)c2)CC1", "note": "(stereo not drawn) [Example 5, 2-[(4-{[(2E)-3-(5-fluoro-3-pyridinyl)-2-propen-1-yl]amino}-1-piperidinyl)methyl]-1,2-dihydro-3H,8H-2a,5,8a-triazaacenaphthylene-3,8-dione]", "values": [{"measurement": "MIC", "setting": "[1]", "value": 0.273, "unit": "µg/mL"}]}
{"compound": "O=c1ccc2ncc(=O)n3c2n1CC3CN1CCC(NCCOc2cccc(F)c2)CC1", "note": "(stereo not drawn) [Example 6, 2-{[4-({2-[(3-fluorophenyl)oxy]ethyl}amino)-1-piperidinyl]methyl}-1,2-dihydro-3H,8H-2a,5,8a-triazaacenaphthylene-3,8-dione]", "values": [{"measurement": "MIC", "setting": "[1]", "value": 0.824, "unit": "µg/mL"}, {"measurement": "MIC", "setting": "[2]", "value": "< 2", "unit": "µg/mL"}]}
{"compound": "O=c1ccc2ncc(=O)n3c2n1CC3CN1CCC(NCCNc2cccc(F)c2)CC1", "note": "(stereo not drawn) [Example 7, 2-{[4-({2-[(3-Fluorophenyl)amino]ethyl}amino)-1-piperidinyl]methyl}-1,2-dihydro-3H,8H-2a,5,8a-triazaacenaphthylene-3,8-dione]", "values": [{"measurement": "MIC", "setting": "[1]", "value": 0.071, "unit": "µg/mL"}]}
